Reference: PMC11784839, “Monoaminergic neurotransmitters are bimodal effectors of tau aggregation” (Science Advances, 2025)
Entries after “also recorded” stand apart in the source; their conditions may differ. Read-outs that look alike come from different tables or passages of the source. Blank lines part the entries; values can stand above or below the molecule they belong to.

Experiments:
[1] = molecular target: T1, tau (Homo sapiens, UniProt P10636); experiment: MCE Phenols Library screening, tau biosensor cell seeding assay (AvZ); format: cell-based; settings: for AvZ (average z score of seeding, SDs from the mean level of seeding): 10 μM phenol in cell cultures, AD brain homogenate preincubated 16 hours, two biological replicates, positive = catalyzes seeding, negative = inhibits; for Z repl 1 / Z Repl 2: Z score; for Z repl 1 / raw data 1: replicate 1; for Z Repl 2 / raw data 2: replicate 2; for av Z: average Z score of the two replicates, tau seeding; for raw data 1 / raw data 2: puncta
Target sequence in this assay (P10636 623-695 limits assumed): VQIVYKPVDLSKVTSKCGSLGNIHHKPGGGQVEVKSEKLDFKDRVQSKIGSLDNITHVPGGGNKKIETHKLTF

[2] = molecular target: T1, tau; experiment: Tau biosensor dose titrations (HEK293T tau biosensor cells seeded with AD brain homogenate);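 on all read-outs here: AD brain homogenate preincubated 16 h with compound, then transfected into tau biosensor cells, seeding read as tau puncta counted by imaging, normalized to cell confluence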; format: cell-based; settings: for effect on seeding at 10 μM: 10 μM final concentration on cells; for effect on seeding at 10 μM / effect on seeding at 50 μM: AD brain homogenate seed; for effect on seeding, concentrations ranging from 10 to 100 μM: AD brain homogenate seed (Fig. 2A); for effect on seeding at 50 μM: 50 μM final concentration on cells; for dose-dependent effect of NT on tau seeding: AD brain homogenate pretreated with indicated amounts of NT (Fig. 3A); for effect on seeding, extended dose series: NT concentrations tested from 25 nM to 100 µM (fig. S6)
[3] = molecular target: tau fibrils purified from AD brain (Homo sapiens, UniProt P10636); experiment: Quantitative electron microscopy (qEM) of fibril disaggregation; format: biochemical; settings: 75 μM; for effect on tau fibril load (qEM): 24-hour treatment, vs no inhibitor control; for reduction of tau fibril counts: preincubated 24 hours, N = 96 images
Chain of tau fibrils purified from AD brain (P10636 623-695 limits assumed): as above

[4] = system: intracellular DA concentrations; settings: cited from earlier work
[5] = molecular target: VMAT2; settings: cited from earlier work
[6] = molecular target: T2, P301S 4R1N tau fused with YFP (Homo sapiens, UniProt P10636, P618S)
T2 sequence (P10636 1-412 isoform P10636-7 P272S): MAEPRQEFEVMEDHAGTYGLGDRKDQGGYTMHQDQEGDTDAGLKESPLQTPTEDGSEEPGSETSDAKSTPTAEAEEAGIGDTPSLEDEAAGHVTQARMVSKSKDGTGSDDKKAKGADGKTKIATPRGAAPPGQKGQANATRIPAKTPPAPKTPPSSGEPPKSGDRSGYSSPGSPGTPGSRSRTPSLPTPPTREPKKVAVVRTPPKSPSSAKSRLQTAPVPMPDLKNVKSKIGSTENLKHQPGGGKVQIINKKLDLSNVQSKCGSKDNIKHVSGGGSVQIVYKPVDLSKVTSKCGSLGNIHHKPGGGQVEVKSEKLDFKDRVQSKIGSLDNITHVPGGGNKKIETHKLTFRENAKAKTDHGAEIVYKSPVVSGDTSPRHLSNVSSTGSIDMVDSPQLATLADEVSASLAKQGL

[7] = molecular target: T2, P301S 4R1N tau fused with YFP; experiment: cell-based
[8] = AD brain homogenate diluted to […] ptau, read-out: IC50 low tau load

Structure (SMILES): N[C@@H](CCC(=O)O)C(=O)O [glutamate]
dose-dependent effect of NT on tau seeding [2]: no significant inhibitory effects on tau seeding
effect on seeding, extended dose series [2]: No inhibitory effect

Structure (SMILES): NC(Cc1cccc(O)c1)C(=O)O (racemic) [DL-m-Tyrosine]
AvZ (average z score of seeding, SDs from the mean level of seeding) [1]: 1.911
Z repl 1 [1]: 1.84
Z Repl 2 [1]: 1.982
av puncta ([1]; average of raw data 1 and 2): 41183.3
raw data 1 [1]: 48433.9
raw data 2 [1]: 33932.7
effect on seeding, concentrations ranging from 10 to 100 μM [2]: catalyzed seeding independently of dose at all concentrations tested

Structure (SMILES): COc1cc(CC(=O)O)ccc1O [Homovanillic acid]
AvZ (average z score of seeding, SDs from the mean level of seeding) [1]: -0.054
AvZ (average z score of seeding, SDs from the mean level of seeding) ([1]; listed as HVA): −0.054
Z repl 1 [1]: -0.336
Z Repl 2 [1]: 0.228
av puncta ([1]; average of raw data 1 and 2): 18758.8
raw data 1 [1]: 22315.8
raw data 2 [1]: 15201.8
effect on tau fibril load (qEM) ([3]; listed as HVA): significant reduction in fibrils, though to a lesser extent

Structure (SMILES): CNC[C@H](O)c1ccc(O)c(O)c1 [EP, epinephrine, reference compound]
dose-dependent effect of NT on tau seeding [2]: inhibited seeding with the next greatest efficacy

Structure (SMILES): N[C@H](Cc1ccc(O)c(O)c1)C(=O)O [D-dopa]
IC50 [2, 8]: 1.9 µM

Structure (SMILES): NCCc1c[nH]c2ccc(O)cc12 [serotonin, 5-hydroxytryptamine]
dose-dependent effect of NT on tau seeding [2]: no significant inhibitory effects on tau seeding
Kd ([5]; read-out: dissociation constant (Kd) for VMAT2): 3.3 µM

Structure (SMILES): CC(C)=CCc1c(O)cc2oc3cc(O)c(O)c(CCC(C)(C)O)c3c(=O)c2c1O [Garcinone C]
AvZ (average z score of seeding, SDs from the mean level of seeding) [1]: 3.115
effect on seeding at 10 μM [2]: catalyzed seeding
effect on seeding at 50 μM [2]: inhibited seeding

Structure (SMILES): NCCc1ccc(O)c(O)c1 [DA, dopamine, reference compound]
effect on seeding at 10 μM [2]: inhibited
IC50 [2, 8]: 3.6 µM
dose-dependent effect of NT on tau seeding [2]: potently and dose-dependently inhibited tau seeding
IC50 ([2]; AD brain homogenate with ptau […], read-out: IC50 high tau load): 9.8 µM
effect on tau fibril load (qEM) [3]: significantly reduce AD tau fibrils
reduction of tau fibril counts [3]: about 50%
effect of lower doses on seeding in dopaminergic neurons ([6]; around 1 μM, high tau load): catalytic effect on seeding
effect on seeding in dopaminergic neurons at 50 μM ([6]; final concentration 50 μM on cells): inhibited seeding
affinity for VMAT2 relative to 5-HT [5]: comparable or slightly lower affinity for VMAT2 than 5-HT
IC50 [7]: 16.6 µM

Structure (SMILES): O=C(O)Cc1ccc(O)c(O)c1 [DOPAC, 3,4-dihydroxyphenylacetic acid]
dose-dependent effect of NT on tau seeding [2]: inhibited seeding with effects similar to DA

Structure (SMILES): O=C(O)Cc1c[nH]c2ccc(O)cc12 [5-Hydroxyindole-3-acetic acid]
AvZ (average z score of seeding, SDs from the mean level of seeding) [1]: -0.466
Z repl 1 [1]: -0.16
Z Repl 2 [1]: -0.771
av puncta ([1]; average puncta of the two replicates): 14479.9
raw data 1 [1]: 24430.2
raw data 2 [1]: 4529.6
dose-dependent effect of NT on tau seeding [2]: inhibited tau seeding at levels comparable to EP

More lines, main results first:

AvZ (average z score of seeding, SDs from the mean level of seeding) [1]: 1.763
AvZ (average z score of seeding, SDs from the mean level of seeding) ([1]; listed as DL-dopa): 1.76
Structure (SMILES): NC(Cc1ccc(O)c(O)c1)C(=O)O (racemic) [DL-DOPA]
effect on seeding at 10 μM [2]: seeding catalyst; also recorded: catalyzed
effect on seeding, concentrations ranging from 10 to 100 μM [2]: dose-dependent inhibitor at higher concentrations

Z repl 1 [1]: 0.092
Z Repl 2 [1]: 0.543
av Z [1]: 0.317
av puncta ([1]; average of raw data 1 and 2): 23005
raw data 1 [1]: 27448.5
raw data 2 [1]: 18561.5
effect on seeding at 10 μM [2]: catalyzed seeding
effect on seeding at 50 μM [2]: inhibited seeding
Structure (SMILES): COc1ccc(-c2cc(=O)c3c(O)cc(O)c(-c4cc(-c5cc(=O)c6c(O)cc(OC)cc6o5)ccc4OC)c3o2)cc1 [sciadopitysin]

IC50 ([2]; AD brain homogenate diluted to 0.11 ng/μl ptau, read-out: IC50 low tau load): > 25 µM
Structure (SMILES): NC[C@H](O)c1ccc(O)c(O)c1 [NE, norepinephrine, reference compound]

effect on seeding, extended dose series [2]: No inhibitory effect
Structure (SMILES): NCCCC(=O)O [GABA, γ-aminobutyric acid]
dose-dependent effect of NT on tau seeding [2]: no significant inhibitory effects on tau seeding

IC50 [2, 8]: 1.9 µM
effect on tau fibril load (qEM) [3]: significantly reduce AD tau fibrils
reduction of tau fibril counts [3]: ~75%
Structure (SMILES): N[C@@H](Cc1ccc(O)c(O)c1)C(=O)O [L-dopa]
increase of intracellular DA concentrations [4]: ~10 fold
intracellular DA concentration in neurons treated with levodopa [4]: up to 17 μM

av Z [1]: 0.598
effect on seeding at 10 μM [2]: catalyzed seeding
effect on seeding at 50 μM [2]: inhibited seeding
Structure (SMILES): COc1c(O)cc2oc3cc(O)c(CC=C(C)C)c(O)c3c(=O)c2c1CCC(C)(C)O [garcinone D]

effect on seeding, extended dose series [2]: No inhibitory effect
Structure (SMILES): CC(=O)OCC[N+](C)(C)C [acetylcholine]
dose-dependent effect of NT on tau seeding [2]: no significant inhibitory effects on tau seeding
